Measurements taken from patent US7547706B2, “1H-pyrimido[4,5-b]indole derivatives, their preparation and therapeutic use” (Sanofi-Aventis, priority 2005, dated 2009).
Where a name gives a salt, the structure may show the parent alone. Marks after values point to notes of the source that are not given here.

Target: T1, peripheral benzodiazepine receptors (p or PBR sites) (Rattus norvegicus, UniProt P16257)
T1 construct: After decapitation, the kidney was removed and the tissue was homogenized; from tissue; host or cells: kidney membrane homogenate of male Sprague Dawley rats
Experiment: Binding of [3H]Ro5-4864 to peripheral benzodiazepine receptors in rat kidney membranes
Details: [3H]Ro5-4864 0.5 nM, 3 h at 0° C., read-out: IC50, concentration which inhibits 50% of the specific binding of [3H]Ro5-4864

| SMILES | IC50 |
| --- | --- |
| CN(C)C(=O)c1nc(-c2ccccc2)nc2c1c1ccc(Cl)cc1n2C [Compound 2, 7-chloro-N,N,9-trimethyl-2-phenyl-9H-pyrimido[4,5-b]indole-4-carboxamide] | 2.2 nM |
| CN(C)C(=O)c1nc(-c2ccncc2)nc2c1c1ccc(Cl)cc1n2C [Compound 15, 7-chloro-N,N,9-trimethyl-2-pyridin-4-yl-9H-pyrimido[4,5-b]indole-4-carboxamide] | 3.1 nM |
| CN(C)C(=O)Cc1nc(-c2ccccc2)nc2c1c1ccc(Cl)cc1n2C [Compound 19, 2-(7-chloro-9-methyl-2-phenyl-9H-pyrimido[4,5-b]indol-4-yl)-N,N-dimethylacetamide] | 1.3 nM |

System: motor neurons of the facial nucleus
Experiment: Survival of the motor neurons after sectioning the facial nerve in rats aged 4 days
Type: in vivo, rat
Details: via oral route, at 10 mg/kg; treated for 7 days; facial nerve lesion in 4 day old rats
Protocol: Test of Survival of the Motor Neurons after Sectioning the Facial Nerve in Rats Aged 4 Days
After lesion of the facial nerve in immature rats, the motor neurons of the facial nucleus underwent neuronal death by apoptosis. Neural survival was evaluated using histological methods and neuronal counting.
4 day old immature rats were anesthetized with pentobarbital (3 mg/kg by the i.p. route). The right facial nerve was exposed and sectioned, at its outlet from the stylomastoid foramen. After waking up, the young rats were returned to their mothers and treated for 7 days with one or two daily administrations, via oral or intraperitoneal route, at doses ranging from 1 to 10 mg/kg.
7 days after the lesion, the animals were decapitated and the brains frozen in isopentane at −40° C. The entire facial […] was cut with a cryostat into 10 μm sections. The motor neurons were colored with cresyl violet and counted using the Histo™ software (Biocom™).

| SMILES | % increase of neuronal survival |
| --- | --- |
| CN(C)C(=O)c1nc(-c2ccccc2)nc2c1c1ccc(Cl)cc1n2C [Compound 2, 7-chloro-N,N,9-trimethyl-2-phenyl-9H-pyrimido[4,5-b]indole-4-carboxamide] | +25* % |
| CN(C)C(=O)c1nc(-c2ccncc2)nc2c1c1ccc(Cl)cc1n2C [Compound 15, 7-chloro-N,N,9-trimethyl-2-pyridin-4-yl-9H-pyrimido[4,5-b]indole-4-carboxamide] | +40* % |
| CN(C)C(=O)Cc1nc(-c2ccccc2)nc2c1c1ccc(Cl)cc1n2C [Compound 19, 2-(7-chloro-9-methyl-2-phenyl-9H-pyrimido[4,5-b]indol-4-yl)-N,N-dimethylacetamide] | +21* % |

System: not given
Experiment: not given
Details: not given

| SMILES | melting point |
| --- | --- |
| Cc1cc(-c2nc(C(=O)N(C)C)c3c4ccc(Cl)cc4n(C)c3n2)cnc1C.Cl | 285 to 289 °C |
| CN(C)C(=O)c1nc(-c2cnc3c(c2)CCCC3)nc2c1c1ccc(Cl)cc1n2C.Cl | 289 to 291 °C |
| Cc1cc(-c2nc(C(=O)N(C)C)c3c4ccc(Cl)cc4n(C)c3n2)cc(C)n1.Cl | 288 to 292 °C |
| CC(C)Cn1c2cc(Cl)ccc2c2c(C(=O)N(C)C)nc(-c3ccncc3)nc21 (as salt: HCl) [Compound 31, 7-chloro-9-isobutyl-N,N-dimethyl-2-pyridin-4-yl-9H-pyrimido[4,5-b]indole-4-carboxamide] | 230 to 236 °C |
| CN(C)Cc1ccc(-c2nc(C(=O)N(C)C)c3c4ccc(Cl)cc4n(C)c3n2)cn1 (as salt: HCl) [Compound 47, 7-chloro-2-{6-[(dimethylamino)methyl]pyridin-3-yl}-N,N,9-trimethyl-9H-pyrimido[4,5-b]indole-4-carboxamide] | 240 to 242 °C |
| CN(C)C(=O)c1nc(-c2ccccc2)nc2c1c1ccccc1n2C [Compound 1, N,N,9-trimethyl-2-phenyl-9H-pyrimido[4,5-b]indole-4-carboxamide] | 193 to 195 °C |
| CN(C)C(=O)c1nc(-c2ccccc2)nc2c1c1ccc(F)cc1n2C [Compound 3, 7-fluoro-N,N,9-trimethyl-2-phenyl-9H-pyrimido[4,5-b]indole-4-carboxamide] | 229 to 231 °C |
| CN(C)C(=O)c1nc(-c2ccccc2)nc2c1c1cc(Cl)ccc1n2C [Compound 4, 6-chloro-N,N,9-trimethyl-2-phenyl-9H-pyrimido[4,5-b]indole-4-carboxamide] | 222 to 224 °C |
| CN(C)C(=O)c1nc(-c2ccccc2)nc2[nH]c3cc(Cl)ccc3c12 [Compound 5, 7-chloro-N,N-dimethyl-2-phenyl-9H-pyrimido[4,5-b]indole-4-carboxamide] | 232 to 233 °C |
| CN1CCN(C(=O)c2nc(-c3ccccc3)nc3c2c2ccc(Cl)cc2n3C)CC1 [Compound 11, 7-chloro-9-methyl-4-[(4-methylpiperazin-1-yl)carbonyl]-2-phenyl-9H-pyrimido[4,5-b]indole] | 236 to 238 °C |
| Cn1c2cc(Cl)ccc2c2c(C(=O)N3CCCC3)nc(-c3ccncc3)nc21 [Compound 14, 7-chloro-9-methyl-2-pyridin-4-yl-4-(pyrrolidin-1-ylcarbonyl)-9H-pyrimido[4,5-b]indole] | 256 to 258 °C |
| CN(C)C(=O)c1nc(-c2cccnc2)nc2c1c1ccc(Cl)cc1n2C [Compound 16, 7-chloro-N,N,9-trimethyl-2-pyridin-3-yl-9H-pyrimido[4,5-b]indole-4-carboxamide] | 283 to 284 °C |
| CN(C)C(=O)c1nc(-c2cnccn2)nc2c1c1ccc(Cl)cc1n2C [Compound 18, 7-chloro-N,N,9-trimethyl-2-pyrazin-2-yl-9H-pyrimido[4,5-b]indole-4-carboxamide] | 272 to 273 °C |
| CN(C)C(=O)Cc1nc(-c2ccncc2)nc2c1c1ccc(Cl)cc1n2C [Compound 21, 2-(7-chloro-9-methyl-2-pyridin-4-yl-9H-pyrimido[4,5-b]indol-4-yl)-N,N-dimethylacetamide] | 231 to 232 °C |
| CN(C)C(=O)Cc1nc(-c2cccnc2)nc2c1c1ccc(Cl)cc1n2C [Compound 22, 2-(7-chloro-9-methyl-2-pyridin-3-yl-9H-pyrimido[4,5-b]indol-4-yl)-N,N-dimethylacetamide] | 248 to 251 °C |
| CN(C)C(=O)c1nc(-c2ccccc2)nc2[nH]c3ccccc3c12 [Compound 23, N,N-dimethyl-2-phenyl-9H-pyrimido[4,5-b]indole-4-carboxamide] | 218 to 219 °C |
| CCOC(=O)c1nc(-c2ccccc2)nc2c1c1ccc(Cl)cc1n2C [Compound 24, Ethyl 7-chloro-9-methyl-2-phenyl-9H-pyrimido[4,5-b]indole-4-carboxylate] | 139 to 140 °C |

| SMILES | melting point |
| --- | --- |
| Cn1c2cc(Cl)ccc2c2c(C(=O)O)nc(-c3ccccc3)nc21 [Compound 26, 7-chloro-9-methyl-2-phenyl-9H-pyrimido[4,5-b]indole-4-carboxylic acid] | 208 to 209 °C |
| COc1ccc(-c2nc(C(=O)N(C)C)c3c4ccc(Cl)cc4n(C)c3n2)cn1 [Compound 28, 7-chloro-2-(6-methoxypyridin-3-yl)-N,N,9-trimethyl-9H-pyrimido[4,5-b]indole-4-carboxamide] | 267 to 268 °C |
| COc1cc(-c2nc(C(=O)N(C)C)c3c4ccc(Cl)cc4n(C)c3n2)ccn1 [Compound 30, 7-chloro-2-(2-methoxypyridin-4-yl)-N,N,9-trimethyl-9H-pyrimido[4,5-b]indole-4-carboxamide] | 278 to 279 °C |
| CN(C)C(=O)c1nc(C2CC2)nc2c1c1ccc(Cl)cc1n2C [Compound 32, 7-chloro-2-cyclopropyl-N,N,9-trimethyl-9H-pyrimido[4,5-b]indole-4-carboxamide] | 197 to 198 °C |
| Cc1nc(C(=O)N(C)C)c2c3ccc(Cl)cc3n(C)c2n1 [Compound 33, 7-chloro-N,N,2,9-tetramethyl-9H-pyrimido[4,5-b]indole-4-carboxamide] | 193 to 195 °C |
| CC(C)c1nc(C(=O)N(C)C)c2c3ccc(Cl)cc3n(C)c2n1 [Compound 34, 7-chloro-2-isopropyl-N,N,9-trimethyl-9H-pyrimido[4,5-b]indole-4-carboxamide] | 125 to 126 °C |
| CN(C)C(=O)c1nc(C2CCOCC2)nc2c1c1ccc(Cl)cc1n2C [Compound 35, 7-chloro-N,N,9-trimethyl-2-(tetrahydro-2H-pyran-4-yl)-9H-pyrimido[4,5-b]indole-4-carboxamide] | 174.5 to 175.5 °C |
| CN(C)C(=O)c1nc(-c2ccc(Cl)nc2)nc2c1c1ccc(Cl)cc1n2C [Compound 37, 7-chloro-2-(6-chloropyridin-3-yl)-N,N,9-trimethyl-9H-pyrimido[4,5-b]indole-4-carboxamide] | 275 to 276 °C |
| CCOc1ccc(-c2nc(C(=O)N(C)C)c3c4ccc(Cl)cc4n(C)c3n2)cn1 [Compound 39, 7-chloro-2-(6-ethoxypyridin-3-yl)-N,N,9-trimethyl-9H-pyrimido[4,5-b]indole-4-carboxamide] | 237 to 239 °C |
| CCc1ccc(-c2nc(C(=O)N(C)C)c3c4ccc(Cl)cc4n(C)c3n2)cn1 [Compound 40, 7-chloro-2-(6-ethylpyridin-3-yl)-N,N,9-trimethyl-9H-pyrimido[4,5-b]indole-4-carboxamide] | 232 to 235 °C |
| CCc1cncc(-c2nc(C(=O)N(C)C)c3c4ccc(Cl)cc4n(C)c3n2)c1 [Compound 41, 7-chloro-2-(5-ethylpyridin-3-yl)-N,N,9-trimethyl-9H-pyrimido[4,5-b]indole-4-carboxamide] | 218 to 219 °C |
| Cc1cncc(-c2nc(C(=O)N(C)C)c3c4ccc(Cl)cc4n(C)c3n2)c1 [Compound 42, 7-chloro-N,N,9-trimethyl-2-(5-methylpyridin-3-yl)-9H-pyrimido[4,5-b]indole-4-carboxamide] | 313 to 314 °C |
| CN(C)C(=O)c1nc(-c2cncnc2)nc2c1c1ccc(Cl)cc1n2C [Compound 43, 7-chloro-N,N,9-trimethyl-2-pyrimidin-5-yl-9H-pyrimido[4,5-b]indole-4-carboxamide] | 322 to 325 °C |
| COc1cncc(-c2nc(C(=O)N(C)C)c3c4ccc(Cl)cc4n(C)c3n2)c1 [Compound 44, 7-chloro-2-(5-methoxypyridin-3-yl)-N,N,9-trimethyl-9H-pyrimido[4,5-b]indole-4-carboxamide] | 258 to 260 °C |
| COCc1ccc(-c2nc(C(=O)N(C)C)c3c4ccc(Cl)cc4n(C)c3n2)cn1 [Compound 45, 7-chloro-2-[6-(methoxymethyl)pyridin-3-yl]-N,N,9-trimethyl-9H-pyrimido[4,5-b]indole-4-carboxamide] | 239 to 241 °C |
| Cc1nc(-c2nc(C(=O)N(C)C)c3c4ccc(Cl)cc4n(C)c3n2)cs1 [Compound 46, 7-chloro-N,N,9-trimethyl-2-(2-methyl-1,3-thiazol-4-yl)-9H-pyrimido[4,5-b]indole-4-carboxamide] | 256 to 258 °C |
